Where two headings read alike, the source gives them in different places.
Columns and labels:
human α1A-adrenoceptor = target: T1, human α1A-adrenoceptor (Homo sapiens, UniProt P35348); experiment: [3H]prazosin whole-cell competition binding, CHO-α1A cells; conditions: for selectivity α1A vs 1D / selectivity α1A vs α1B: ratio, 1 = no selectivity for a subtype over another
T1 construct: CHO cells stably expressing either the full‐length human α1A, α1B, or α1D‐adrenoceptor
T1 sequence (P35348 1-466): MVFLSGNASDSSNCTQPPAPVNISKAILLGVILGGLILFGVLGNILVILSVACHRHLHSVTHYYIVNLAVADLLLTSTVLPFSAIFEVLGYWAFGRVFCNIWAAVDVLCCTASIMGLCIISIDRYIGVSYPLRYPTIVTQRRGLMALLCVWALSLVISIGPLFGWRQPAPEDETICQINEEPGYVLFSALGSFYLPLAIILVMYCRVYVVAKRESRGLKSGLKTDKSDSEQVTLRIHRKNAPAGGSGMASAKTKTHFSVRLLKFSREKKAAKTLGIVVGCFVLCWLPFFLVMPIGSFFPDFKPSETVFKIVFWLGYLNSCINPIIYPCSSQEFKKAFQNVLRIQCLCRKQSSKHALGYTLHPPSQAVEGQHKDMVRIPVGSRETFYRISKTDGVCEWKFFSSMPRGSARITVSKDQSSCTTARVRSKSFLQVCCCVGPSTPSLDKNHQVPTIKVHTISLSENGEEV

human α1B-adrenoceptor = target: T2, human α1B-adrenoceptor (Homo sapiens, UniProt P35368); experiment: [3H]prazosin whole-cell competition binding, CHO-α1B cells; conditions: for selectivity α1B vs α1D: ratio, 1 = no selectivity for a subtype over another
T2 construct: CHO cells stably expressing either the full‐length human α1A, α1B, or α1D‐adrenoceptor
T2 sequence (P35368 1-520): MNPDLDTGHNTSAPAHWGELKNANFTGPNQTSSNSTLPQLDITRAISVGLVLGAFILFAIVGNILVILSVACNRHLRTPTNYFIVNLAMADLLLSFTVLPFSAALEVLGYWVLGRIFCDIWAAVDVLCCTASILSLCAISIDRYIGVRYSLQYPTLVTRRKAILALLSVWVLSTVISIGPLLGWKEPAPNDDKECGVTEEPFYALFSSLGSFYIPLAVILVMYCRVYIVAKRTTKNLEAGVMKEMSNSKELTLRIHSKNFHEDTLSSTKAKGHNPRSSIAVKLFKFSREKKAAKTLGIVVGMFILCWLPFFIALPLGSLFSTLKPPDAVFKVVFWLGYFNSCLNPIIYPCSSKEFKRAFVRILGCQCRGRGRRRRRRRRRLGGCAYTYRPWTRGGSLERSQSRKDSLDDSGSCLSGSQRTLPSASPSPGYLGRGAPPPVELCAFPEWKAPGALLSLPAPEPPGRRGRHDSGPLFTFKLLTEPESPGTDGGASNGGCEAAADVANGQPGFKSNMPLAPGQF

[1] = target: T3, full-length human α1D-adrenoceptor (Homo sapiens, UniProt P25100); experiment: [3H]prazosin whole-cell competition binding, CHO-α1D cells; conditions: for Selectivity ratio α1B vs α1D / Selectivity ratio α1A vs α1D: ratio of KD values, higher α1D affinity (site 1 KD)
T3 sequence (P25100 1-572): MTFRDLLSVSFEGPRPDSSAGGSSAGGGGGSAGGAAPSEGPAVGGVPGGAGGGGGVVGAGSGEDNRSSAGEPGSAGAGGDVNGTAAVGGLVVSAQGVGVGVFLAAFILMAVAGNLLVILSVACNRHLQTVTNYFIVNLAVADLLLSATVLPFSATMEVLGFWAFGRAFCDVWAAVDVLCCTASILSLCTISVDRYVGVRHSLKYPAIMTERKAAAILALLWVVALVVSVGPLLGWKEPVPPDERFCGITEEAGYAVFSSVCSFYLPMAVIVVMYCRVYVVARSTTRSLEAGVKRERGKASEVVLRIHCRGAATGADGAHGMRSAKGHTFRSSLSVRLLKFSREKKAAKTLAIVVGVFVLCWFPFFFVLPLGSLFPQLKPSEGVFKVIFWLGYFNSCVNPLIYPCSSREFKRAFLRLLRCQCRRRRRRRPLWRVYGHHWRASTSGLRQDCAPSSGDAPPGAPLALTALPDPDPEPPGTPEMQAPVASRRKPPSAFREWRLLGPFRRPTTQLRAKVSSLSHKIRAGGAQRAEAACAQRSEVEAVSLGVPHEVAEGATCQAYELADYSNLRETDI

[2] = ratio of KD values, higher α1A affinity, 1.0 under vs = none
[3] = ratio of KD values, printed under α1A = higher α1A affinity, 1.0 under vs = none
[4] = single-component inhibition curve, given as log KD (negative), mean ± SE mean, read-out: Log KD α1A (converted)
[5] = single-component inhibition curve, given as log KD (negative), mean ± SE mean, read-out: Log KD α1B (converted)
[6] = low-affinity component of two-component curve, control
[7] = share of site 1 in the two-component inhibition curve
[8] = two-component inhibition curve, proportion of site 1
[9] = high-affinity component of two-component curve, control, used for selectivity
[10] = Log KD α1D, single-component inhibition curve, given as log KD (negative), mean ± SE mean
[11] = ratio of KD values, higher α1B affinity, 1.0 under vs = none
[12] = single-component inhibition curve, given as log KD (negative), mean ± SE mean
[13] = percentage of inhibition through first component, control
[14] = log KD from 3H-prazosin whole cell binding, CHO cells, mean ± s.e.mean
[15] = selectivity ratio, 1 = no selectivity for a given receptor subtype over another

Selectivity ratio α1A vs α1D (human α1A-adrenoceptor; [2]) | Selectivity ratio α1A vs α1B (human α1A-adrenoceptor; [3]) | Kd (human α1A-adrenoceptor; [4]) | selectivity α1B vs α1D (human α1B-adrenoceptor) | Kd (human α1B-adrenoceptor; [5]) | Selectivity ratio α1B vs α1D [1] | Kd [1, 10] | SMILES | also measured
34 fold | 68 fold | 0.0776 µM | 2.0 | 5.25 µM | 2.0 fold | 2.63 µM | CN(C)CC/C=C1\c2ccccc2CSc2ccccc21 [Dosulepin] | 
3.2 fold | 16 fold | 3.39 µM | 5.0 | 53.7 µM | 5.0 fold | 10.7 µM | CCC1(C2=NCCN2)Cc2ccccc2O1 (centres unmarked) [Efaroxan] | 
25 fold | 7.6 fold | 0.00447 µM |  | 0.0339 µM |  | 0.11 µM | OCCN1CCN(CCC=C2c3ccccc3Sc3ccc(C(F)(F)F)cc32)CC1 [Flupenthixol] | Selectivity ratio α1B vs α1D (human α1B-adrenoceptor; [11]): 3.2 fold
2.9 fold | 3.4 fold |  |  |  |  |  | O=C1c2ccccc2CCC1CNCCc1ccc(O)cc1 (centres unmarked) [HEAT] | Log KD α1A (human α1A-adrenoceptor; [12]): −8.57 ± 0.06; Selectivity ratio α1B vs α1D (human α1B-adrenoceptor; [11]): 1.2 fold; Log KD α1B (human α1B-adrenoceptor; [12]): −8.04 ± 0.04; Log KD α1D site 1 [1, 9]: −8.11 ± 0.18; Log KD α1D site 2 [1, 6]: −5.15 ± 0.26; % site 1 α1D [1, 13]: 64.1 ± 4.1% site 1; % site 1 α1D [1, 8]: -8.11 ± 0.18 -5.15 ± 0.26 64.1 ± 4.1% site 1
1.9 fold | 11 fold | 5.89 µM | 5.8 |  | 5.8 fold | 11 µM | Cc1ccc(OCC(O)C(C)NC(C)C)c2c1CCC2 (centres unmarked) [ICI118551] | Kd (human α1B-adrenoceptor; app: top concentration inhibited most but not all specific binding, curve extrapolated, read-out: Log KD α1B (apparent) (converted)): 63.1 µM
2.9 fold | 15 fold | 0.0219 µM | 43 | 0.324 µM | 43 fold |  | CC(C(O)c1ccc(O)cc1)N1CCC(Cc2ccccc2)CC1 (centres unmarked) [Ifenprodil] | Kd ([1]; Log KD α1D site 1, high-affinity component of two-component curve, control, used for selectivity): 0.00759 µM; Log KD α1D site 2 [1, 6]: −6.05 ± 0.13; % site 1 α1D [1, 13]: 48.8 ± 4.5% site 1; % site 1 α1D [1, 8]: -8.12 ± 0.18 -6.05 ± 0.13 48.8 ± 4.5% site 1
 | >4.0 fold | 25.1 µM | >10 |  | >10 fold | 9.55 µM | CCn1ccnc1CC1COc2ccccc2O1 (centres unmarked) [Imiloxan] | selectivity α1A vs 1D (human α1A-adrenoceptor): 2.6; Selectivity ratio α1A vs α1D [1]: 2.6 fold
138 fold | 41 fold | 0.00372 µM |  | 0.151 µM |  | 0.513 µM | O=C(NC1CCN(CCc2c[nH]c3ccccc23)CC1)c1ccccc1 [Indoramin] | α1A selectivity (human α1A-adrenoceptor; for α1A over the α1B or α1D-adrenoceptors): 40 fold; Selectivity ratio α1B vs α1D (human α1B-adrenoceptor; [11]): 3.4 fold
 |  |  |  |  |  |  | CN1CCN(c2ccc(Nc3c4ccccc4nc4ccccc34)cc2)CC1 [JP1302] | Log KD α1A (human α1A-adrenoceptor; [12]): −6.21 ± 0.04; Log KD α1B (human α1B-adrenoceptor; [12]): −5.46 ± 0.02; Log KD α1D [1, 12]: −5.58 ± 0.09
37 fold | 32 fold | 0.115 µM |  | 3.63 µM |  | 4.27 µM | CN(CCCN1c2ccccc2CCc2ccccc21)CC(=O)c1ccc(Cl)cc1 [Lofepramine] | Selectivity ratio α1B vs α1D (human α1B-adrenoceptor; [11]): 1.2 fold
8.1 fold | 14 fold | 0.0107 µM | 1.7 | 0.151 µM | 1.7 fold | 0.0871 µM | COc1ccccc1N1CCN(CC(O)COc2cccc3ccccc23)CC1 (centres unmarked) [Naftopidil] | 

SMILES | Selectivity ratio α1A vs α1D (human α1A-adrenoceptor; [2]) | Selectivity ratio α1A vs α1B (human α1A-adrenoceptor; [3]) | Kd (human α1A-adrenoceptor; [4]) | selectivity α1B vs α1D (human α1B-adrenoceptor) | Kd (human α1B-adrenoceptor; [5]) | Selectivity ratio α1B vs α1D [1] | Kd [1, 10] | also measured
CC(C)(C)NCC(O)COc1cccc2[nH]c(C#N)cc12 (centres unmarked) [Cyanopindolol] | 1.5 fold | 4.8 fold | 2.57 µM | 3.1 | 12.3 µM | 3.1 fold |  | Kd [1]: 3.98 µM
ClCCN(Cc1ccccc1)Cc1ccccc1 [Dibenamine] | 3.5 fold | 22 fold |  | 6.3 |  | 6.3 fold |  | Log KD α1A site 1 (human α1A-adrenoceptor; high-affinity component of two-component curve, control (no thiosulphate)): −7.91 ± 0.06; Log KD α1A site 2 (human α1A-adrenoceptor; [6]): −5.32 ± 0.08; % site 1, α1A (human α1A-adrenoceptor; [7]): -7.91 ± 0.06 -5.32 ± 0.08 83.0 ± 1.8% site 1; % site 1, α1A (human α1A-adrenoceptor; [8]): -7.91 ± 0.06 -5.32 ± 0.08 83.0 ± 1.8% site 1; Log KD α1B site 1 (human α1B-adrenoceptor; high-affinity component of two-component curve, control): −6.57 ± 0.07; Log KD α1B site 2 (human α1B-adrenoceptor; [6]): −4.66 ± 0.06; % site 1, α1B (human α1B-adrenoceptor; [7]): -6.57 ± 0.07 -4.66 ± 0.06 67.6 ± 2.6% site 1; % site 1, α1B (human α1B-adrenoceptor; [8]): -6.57 ± 0.07 -4.66 ± 0.06 67.6 ± 2.6% site 1; Log KD α1D site 1 [1, 9]: −7.37 ± 0.15; Log KD α1D site 2 [1, 6]: −5.00 ± 0.14; % site 1 α1D [1, 8]: -7.37 ± 0.15 -5.00 ± 0.14 47.8 ± 3.2% site 1
CN(C)CCCN1c2ccccc2CCc2ccccc21 [Imipramine] |  |  | 0.0339 µM | 1.3 | 1.74 µM | 1.3 fold | 1.29 µM | Selectivity ratio α1A vs α1B (human α1A-adrenoceptor): 51 fold; Selectivity ratio α1A vs α1D (human α1A-adrenoceptor): 38 fold
CN1CC[C@]2(CCN3CCc4c(oc5ccccc45)[C@@H]3C2)N(C)C1=O.Cl [MK-912] |  |  |  | 69 |  |  |  | Log KD α1A (human α1A-adrenoceptor; [14]): -6.76 ± 0.03; selectivity α1A vs 1D (human α1A-adrenoceptor): 3.5; selectivity α1A vs α1B (human α1A-adrenoceptor): 20; Log KD α1B (human α1B-adrenoceptor; [14]): -5.46 ± 0.05; Log KD α1D site 1 ([1]; two-component inhibition curve, first (high-affinity) component): -7.30 ± 0.16; % site 1 α1D [1, 8]: 61.2 ± 5.5%; Log KD α1D site 2 ([1]; two-component inhibition curve, second (low-affinity) component): -5.50 ± 0.25
CN1CC[C@]2(CCN3CCc4c(oc5ccccc45)[C@@H]3C2)N(C)C1=O.Cl [MK‐912] |  | 20 fold |  |  |  | 69 fold |  | Log KD α1A (human α1A-adrenoceptor; [12]): −6.76 ± 0.03; Log KD α1B (human α1B-adrenoceptor; [12]): −5.46 ± 0.05; Log KD α1D site 1 [1, 9]: −7.30 ± 0.16; Log KD α1D site 2 [1, 6]: −5.50 ± 0.25; % site 1 α1D [1, 13]: 61.2 ± 5.5% site 1; Selectivity ratio α1A vs α1D [1]: 3.5 fold
CNCCCN1c2ccccc2CCc2ccc(Cl)cc21 [Norclomipramine] | 48 fold | 48 fold |  |  |  |  |  | selectivity α1A vs 1D (human α1A-adrenoceptor): 48; selectivity α1A vs α1B (human α1A-adrenoceptor): 48; selectivities α1A vs α1B (human α1A-adrenoceptor; [15]): 48; selectivities α1A vs α1D (human α1A-adrenoceptor; [15]): 48; Log KD α1A (human α1A-adrenoceptor; [12]): −7.52 ± 0.08; Selectivity ratio α1B vs α1D (human α1B-adrenoceptor; [11]): 1.0 fold; Log KD α1B (human α1B-adrenoceptor; [12]): −5.84 ± 0.04; Log KD α1D [1, 12]: −5.84 ± 0.06
CNCCC=C1c2ccccc2CCc2ccccc21 [Nortriptyline] |  |  |  |  | 0.851 µM |  | 1.55 µM | Selectivity ratio α1A vs α1B (human α1A-adrenoceptor): 47 fold; Selectivity ratio α1A vs α1D (human α1A-adrenoceptor): 85 fold; Kd (human α1A-adrenoceptor; Log KD α1A, single-component inhibition curve, given as log KD (negative), mean ± SE mean): 0.0182 µM; Selectivity ratio α1B vs α1D (human α1B-adrenoceptor): 1.8 fold

From PMC7327383, “The affinity and selectivity of α‐adrenoceptor antagonists, antidepressants, and antipsychotics for the human α1A, α1B, and α1D‐adrenoceptors” (Pharmacology Research & Perspectives, 2020)
